# Laboratory results as given in patent publication US20070142363A1, “Novel diazabicyclonene derivatives and use thereof” (ACTELION PHARMACEUTICALS LTD, priority 2003, published 2007).
# Target: T1, human recombinant renin (Homo sapiens, UniProt P00797)
# T1 sequence (P00797 67-406): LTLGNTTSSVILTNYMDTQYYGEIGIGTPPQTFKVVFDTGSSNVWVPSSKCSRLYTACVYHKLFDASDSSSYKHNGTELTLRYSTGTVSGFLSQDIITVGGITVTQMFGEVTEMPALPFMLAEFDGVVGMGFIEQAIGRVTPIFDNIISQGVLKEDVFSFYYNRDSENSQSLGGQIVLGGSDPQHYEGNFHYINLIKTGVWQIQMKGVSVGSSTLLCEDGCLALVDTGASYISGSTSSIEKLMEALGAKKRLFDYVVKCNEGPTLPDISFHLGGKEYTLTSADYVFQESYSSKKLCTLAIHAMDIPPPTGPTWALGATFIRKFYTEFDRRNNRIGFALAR
# Assay: Inhibition of human recombinant renin (enzymatic in vitro assay, Ang I detected by EIA)
# Assay type: biochemical
# Conditions: human recombinant renin 0.16 ng/mL, synthetic human angiotensin(1-14) 0.5 μM, 37° C. for 3 h
# Experimental: Inhibition of Human Recombinant Renin by the Compounds of the Invention The enzymatic in vitro assay was performed in 384-well polypropylene plates (Nunc). The assay buffer consisted of 10 mM PBS (Gibco BRL) including 1 mM EDTA and 0.1% BSA. The incubates were composed of 50 μL per well of an enzyme mix and 2.5 μL of renin inhibitors in DMSO. The enzyme mix was premixed at 4° C. and consists of the following components: • human recombinant renin (0.16 ng/mL) * synthetic human angiotensin(1-14) (0.5 μM) • hydroxyquinoline sulfate (1 mM) The mixtures were then incubated at 37° C. for 3 h. To determine the enzymatic activity and its inhibition, the accumulated Ang I was detected by an enzyme immunoassay (EIA) in 384-well plates (Nunc). 5 μL of the incubates or standards were transferred to immuno plates which were previously coated with a covalent complex of Ang I and bovine serum albumin (Ang I—BSA). 75 μL of Ang I-antibodies in essaybuffer above including 0.01% Tween 20 were added and a primary incubation made at 4° C. overnight. The plates were washed 3 times with PBS including 0.01% Tween 20, and then incubated for 2 h at rt with an antirabbit-peroxidase coupled antibody (WA 934, Amersham).
row,Structure (SMILES),IC50
1,"Cc1c(CN(C(=O)C2=C(c3ccc(CCCOc4c(F)ccc(F)c4Cl)cc3)C[C@@H]3CNC[C@H]2N3)C2CC2)ccnc1OCCCO (racemic) [Example 1, (rac.)-(1R*, 5S*)-7-{4-[3-(2-Chloro-3,6-difluorophenoxy)propyl]phenyl}-3,9-diazabicyclo[3.3.1]non-6-ene-6-carboxylic Acid Cyclopropyl-[2-(3-hydroxy-propoxy)-3-methylpyridin-4-ylmethyl]amide]",1.16 nM
2,"Cc1cc(Cl)c(OCCOc2ccc(C3=C(C(=O)N(Cc4ccnc(OCCCO)c4C)C4CC4)[C@H]4CNC[C@@H](C3)N4)cc2)c(Cl)c1 (racemic) [Example 2, (rac.)-(1R*, 5S*)-7-{4-[2-(2,6-Dichloro-4-methylphenoxy)ethoxy]phenyl}-3,9-diazabicyclo[3.3.1]non-6-ene-6-carboxylic Acid Cyclopropyl-[2-(3-hydroxy-propoxy)-3-methylpyridin-4-ylmethyl]amide]",0.49 nM
3,"Cc1c(CN(C(=O)C2=C(c3ccc(CCCOc4c(F)ccc(F)c4Cl)cc3)C[C@@H]3CNC[C@H]2N3)C2CC2)ccnc1OCCO (racemic) [Example 3, (rac.)-(1R*, 5S*)-7-{4-[3-(2-Chloro-3,6-difluorophenoxy)propyl]phenyl}-3,9-diazabicyclo[3.3.1]non-6-ene-6-carboxylic Acid Cyclopropyl-[2-(2-hydroxy-ethoxy)-3-methylpyridin-4-ylmethyl]amide]",0.82 nM
4,"Cc1cc(Cl)c(OCCOc2ccc(C3=C(C(=O)N(Cc4ccnc(OCCO)c4C)C4CC4)[C@H]4CNC[C@@H](C3)N4)cc2)c(Cl)c1 (racemic) [Example 4, (rac.)-(1R*, 5S*)-7-{4-[2-(2,6-Dichloro-4-methylphenoxy)ethoxy]phenyl}-3,9-diazabicyclo[3.3.1]non-6-ene-6-carboxylic Acid Cyclopropyl-[2-(2-hydroxy-ethoxy)-3-methylpyridin-4-ylmethyl]amide]",1.43 nM
